Test results: article PMC3314937, “Identifying improved TSPO PET imaging probes through biomathematics: The impact of multiple TSPO binding sites in vivo” (Neuroimage, 2012)
Read-outs that look alike come from different tables or passages of the source. Marks after values point to notes of the source that are not given here.

Legend:
[1] = equilibrium dialysis, free fractions in plasma and brain tissue; conditions: 1 μg/g, dialysis against PBS pH 7.4, 5 h, 37 °C
Experimental: (§1) The fP and fND were measured from Landrace pig tissue (blood and brain — obtained from Charles River Laboratories, Tranent, Scotland) using equilibrium dialysis ([Summerfield et al., 2006]). In brief, the cold test compounds were spiked into plasma or brain homogenate at a concentration of 1 μg/g and dialysed against phosphate buffered saline (PBS, pH 7.4) for 5 h at 37 °C. Aliquots (20–50 μL) of plasma, brain and dialysate were taken and extracted using acetonitrile containing internal standard, followed by LC–MS/MS analysis. The free fractions were determined as the concentration ratio of analyte in dialysate to that in plasma or brain.

TSPO [2] = test system: TSPO; set-up: method as in Owen et al. (2010, 2011); conditions: 37 °C, ref Owen et al. (2010, 2011), cited from earlier work; for Bmax-H: HABs, ^3H-PBR28 values also used for PBR111 and DPA713, ^3H-PK11195 for PK11195; for Bmax-L: LABs; for Bmax-M: MABs, both high and low affinity sites, Bmax_H used for PK11195
TSPO [3] = test: competition assays with ^3H-PK11195 for each binding class; set-up: species or system human
in vitro = conditions: Landrace, pig, pH 7.4
Experimental: as §1

TSPO [4] = conditions: ^3H-PK11195, 37 °C, ref Owen et al. (2010, 2011), cited from earlier work

SMILES | fND (free fraction in tissue) ([1]; pig brain homogenate) | fp (free fraction in plasma) ([1]; pig plasma) | Bmax-H (TSPO [2]) | Bmax-L (TSPO [2]) | Bmax-M (TSPO [2]) | affinity ratio (high:low binding site) (TSPO [3]) | fraction unbound at 5 h, 1 μg/g (in vitro; brain homogenate) | fraction unbound at 5 h, 1 μg/g (in vitro; plasma) | Ki (TSPO [4]; high affinity site (HABs), read-out: Ki-H) | Ki (TSPO [4]; low affinity site (LABs), read-out: Ki-L)
CCN(CC)C(=O)Cc1c(-c2ccc(OCCC[18F])cc2)nc2ccc(Cl)cn12 [^18F-PBR111] | 0.06 ± 0.005 (n = 6) | 0.19 ± 0.018 (n = 6) | 193 ± 66 (n = 6) nM | 99.4 ± 35 (n = 5) nM | 186 ± 37 (n = 4) nM | ~ 4 |  |  |  | 
CC[C@@H](C)N(C)C(=O)c1cc2ccccc2c(-c2ccccc2Cl)n1 [^11C-(R)-PK11195] |  |  | 433 ± 154 (n = 9) nM | 506 ± 131 (n = 5) nM | 433 ± 154 ^b (n = 9) nM |  | 0.01 ± 0.002 | 0.14 ± 0.039 |  | 
CCN(CC)C(=O)Cc1c(-c2ccc(O[11CH3])cc2)nn2c(C)cc(C)nc12 [^11C-DPA713] |  |  | 193 ± 66 (n = 6) nM | 99.4 ± 35 (n = 5) nM | 186 ± 37 (n = 4) nM |  |  |  |  | 
CCN(CC)C(=O)Cc1c(-c2ccc(OCCCF)cc2)nc2ccc(Cl)cn12 [^18F-PBR111] |  |  |  |  |  |  |  |  | 0.0156 ± 0.0037 µM | 0.0618 ± 0.0107 µM
